Among the test systems are HCT-116 colon; SK-MEL-2 melanoma; MCF7 breast; HL-60(TB) leukemia; BT-549 breast; OVCAR-4 ovarian; EKVX NSCLC; A549 NSCLC; SK-MEL-28 melanoma; SK-MEL-5 melanoma; T-47D breast; NCI-H23 lung; MDA-MB-231 breast; LOX IMVI melanoma; UACC-257 melanoma; COLO 205 colon.
Common to all, as to assay: NCI-60 cell line screen, 48 h

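Briefly, cells in 96-well plates were exposed to five compound concentrations for 48 h, and endpoints were estimated by linear interpolation. The concentration for full growth arrest is given as TGI.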 Bounds are passed on as bounds.

With `CNC(=O)CCCN(C)C(=O)CCCCC(=O)N(C)C`, the TGI in the assay with HCT-116 colon, in the assay on SK-MEL-2 melanoma, in the assay on MCF7 breast, in the assay on HL-60(TB) leukemia, in the assay with BT-549 breast and in the assay on OVCAR-4 ovarian was above 100 µM each time. Also, the TGI in the assay with EKVX NSCLC, in the assay with A549 NSCLC, in the assay on SK-MEL-28 melanoma, in the assay with SK-MEL-5 melanoma, with T-47D breast and in the assay with NCI-H23 lung was above 100 µM throughout. In addition, the TGI in the assay with MDA-MB-231 breast, in the assay on LOX IMVI melanoma, with UACC-257 melanoma and in the assay on COLO 205 colon was above 100 µM in each case.
In the case of `O=C(CCCl)NNC1=NCCN1`, the TGI in the assay on HCT-116 colon, in the assay on SK-MEL-2 melanoma, in the assay on MCF7 breast, in the assay with HL-60(TB) leukemia, in the assay with BT-549 breast and with OVCAR-4 ovarian was above 100 µM throughout. For the same molecule, the TGI in the assay on EKVX NSCLC, with A549 NSCLC, with SK-MEL-28 melanoma, in the assay with SK-MEL-5 melanoma, with T-47D breast and with NCI-H23 lung was above 100 µM throughout. For the same molecule, the TGI with MDA-MB-231 breast, with LOX IMVI melanoma, in the assay on UACC-257 melanoma and with COLO 205 colon was above 100 µM in each case.
Regarding `CC(=O)N[C@H]1CCCC[C@@H]1OC(C)=O`, the TGI in the assay with HCT-116 colon, in the assay on SK-MEL-2 melanoma, in the assay with MCF7 breast, in the assay with HL-60(TB) leukemia, in the assay on BT-549 breast and in the assay with OVCAR-4 ovarian was above 100 µM each time. Also, the TGI in the assay on EKVX NSCLC, in the assay on SK-MEL-28 melanoma, with SK-MEL-5 melanoma, in the assay with T-47D breast, in the assay on NCI-H23 lung and in the assay on MDA-MB-231 breast was above 100 µM each time. Also, the TGI in the assay on LOX IMVI melanoma, in the assay with UACC-257 melanoma and in the assay with COLO 205 colon was above 100 µM each time.
Consider `Cn1c(-c2ccc(/C=N\N3CCN(/N=C/c4ccc(-c5c[n+]6ccsc6n5C)cc4)CC3)cc2)c[n+]2ccsc12`, for which the TGI was above 100 µM in the assay on HCT-116 colon; above 100 µM in the assay on SK-MEL-2 melanoma; above 100 µM in the assay with MCF7 breast; 48.3 µM in the assay with HL-60(TB) leukemia; 90.3 µM in the assay on BT-549 breast; above 100 µM with OVCAR-4 ovarian. Further, the TGI is above 100 µM with EKVX NSCLC; above 100 µM with A549 NSCLC; 84.6 µM with SK-MEL-5 melanoma; 53.8 µM in the assay with T-47D breast; above 100 µM in the assay with NCI-H23 lung; 78.5 µM in the assay with MDA-MB-231 breast. Besides, the TGI with LOX IMVI melanoma is above 100 µM; with UACC-257 melanoma, 67.9 µM; in the assay on COLO 205 colon, 36.3 µM.
Take `NC1=NNC2(C(N)=N1)c1ccccc1-c1ccccc12`: the TGI in the assay with HCT-116 colon, with MCF7 breast, in the assay on HL-60(TB) leukemia, in the assay with BT-549 breast, in the assay with OVCAR-4 ovarian and in the assay on EKVX NSCLC was above 10 µM in each case. Further, the TGI in the assay on A549 NSCLC, with SK-MEL-28 melanoma, in the assay with SK-MEL-5 melanoma, in the assay with T-47D breast, in the assay on NCI-H23 lung and in the assay on MDA-MB-231 breast was above 10 µM throughout. Besides, the TGI in the assay with LOX IMVI melanoma, in the assay with UACC-257 melanoma and in the assay with COLO 205 colon was above 10 µM in each case.
Take `N#CCCN(CCC#N)c1ccc(/C=C2\N=C(c3ccccc3)N(c3ccccn3)C2=O)cc1`: the TGI with HCT-116 colon, in the assay on SK-MEL-2 melanoma, in the assay on MCF7 breast, in the assay on HL-60(TB) leukemia, in the assay with BT-549 breast and in the assay with OVCAR-4 ovarian was above 100 µM in each case. Further, the TGI in the assay with EKVX NSCLC, in the assay with A549 NSCLC, in the assay on SK-MEL-28 melanoma, in the assay on SK-MEL-5 melanoma, in the assay on T-47D breast and in the assay on MDA-MB-231 breast was above 100 µM in each case. Besides, the TGI in the assay with LOX IMVI melanoma, in the assay with UACC-257 melanoma and in the assay on COLO 205 colon was above 100 µM throughout.
Turning to `Cc1cc(C)c2c(=O)n(CN3CCC(O)(c4ccccc4)CC3)sc2n1`, the TGI is above 100 µM with HCT-116 colon; above 100 µM in the assay on SK-MEL-2 melanoma; above 100 µM in the assay on MCF7 breast; 62.3 µM in the assay on HL-60(TB) leukemia; above 100 µM in the assay with BT-549 breast; 81.4 µM with OVCAR-4 ovarian. Besides, the TGI is 81.7 µM in the assay on EKVX NSCLC; above 100 µM in the assay with A549 NSCLC; above 100 µM in the assay on SK-MEL-28 melanoma; above 100 µM in the assay on SK-MEL-5 melanoma; above 100 µM with T-47D breast; 83.1 µM in the assay on NCI-H23 lung. Moreover, the TGI in the assay on MDA-MB-231 breast, in the assay on LOX IMVI melanoma and in the assay on COLO 205 colon was above 100 µM in each case.
`CC1CCC2C(C(=O)O[C@H]3C4CCO[C@@H](OC5OC(CO)C(O)C(O)C5O)C4[C@@]4(CO)O[C@@H]34)=CO[C@@H](OC3OC(CO)C(O)C(O)C3O)C12` (stereo partly specified): the TGI in the assay with HCT-116 colon, with SK-MEL-2 melanoma, in the assay on MCF7 breast, in the assay with HL-60(TB) leukemia, in the assay with BT-549 breast and in the assay on EKVX NSCLC was above 10 µM throughout. Moreover, the TGI with A549 NSCLC, in the assay with SK-MEL-28 melanoma, in the assay on SK-MEL-5 melanoma, in the assay with T-47D breast, in the assay on NCI-H23 lung and in the assay on MDA-MB-231 breast was above 10 µM throughout. The TGI with LOX IMVI melanoma and in the assay with UACC-257 melanoma was above 10 µM throughout.
Turning to `ClC1=C(Cc2ccccc2)Cc2ccc3c(c21)CCC3`, the TGI with HCT-116 colon is 94.9 µM; with MCF7 breast, 37.7 µM; with HL-60(TB) leukemia, 41.5 µM; in the assay on BT-549 breast, 67.5 µM; with OVCAR-4 ovarian, above 100 µM; in the assay on EKVX NSCLC, above 100 µM. For the same molecule, the TGI in the assay with A549 NSCLC was 98.2 µM; in the assay with SK-MEL-28 melanoma, above 100 µM; with SK-MEL-5 melanoma, 40.6 µM; in the assay with T-47D breast, 50.4 µM; with NCI-H23 lung, above 100 µM; in the assay on MDA-MB-231 breast it was 57.3 µM. Besides, the TGI in the assay on LOX IMVI melanoma amounted to 32.9 µM; in the assay on UACC-257 melanoma, 53.8 µM; with COLO 205 colon, 26.2 µM.

The values are drawn from PubChem BioAssay (NCI).
